Test results published in the supplement of paper PMC10307832.

How the values were obtained:
Assay in all cases: relative viability (nuclei count vs DMSO), 5 days (fraction); higher = more cells survive
[1] = compound: CC(C)C[C@H](NC(=O)[C@H](Cc1ccccc1)NC(=O)c1cnccn1)B(O)O [Bortezomib] + NC(=O)Nc1cc(-c2cccc(F)c2)sc1C(=O)N[C@H]1CCCNC1 [AZD7762] (partner 0.2 µM)
Outline: (§1)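 Relative viability is defined as nuclei in treated wells over nuclei in vehicle wells. Duplicate plates were run and medians reported. Lung cancer cell lines in 1536-well plates were dosed by pin tool one day after seeding, with one drug or with a fixed anchor-drug dose plus five library-drug doses (not always all listed) in √10 steps, and nuclei were counted after 5 days.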

[2] = compound: CC1=CC(=NN1)NC2=CC(=NC(=N2)/C=C/C3=CC=CC=C3)N4CCN(CC4)C + CS(=O)(=O)N1CCN(Cc2cc3nc(-c4cccc5[nH]ncc45)nc(N4CCOCC4)c3s2)CC1 [Pictilisib] (partner 1 µM)
Outline: as §1

[3] = compound: CC(C)C[C@H](NC(=O)[C@H](Cc1ccccc1)NC(=O)c1cnccn1)B(O)O [Bortezomib] + N=C(N)NC(=N)NCCc1ccccc1 [Phenformin] (partner 250 µM)
Outline: as §1

[4] = compound: COC1=CC(c2cc3ccccc3[nH]2)=N/C1=C\c1[nH]c(C)cc1C [Obatoclax] + CS(=O)(=O)CCNCc1ccc(-c2ccc3ncnc(Nc4ccc(OCc5cccc(F)c5)c(Cl)c4)c3c2)o1 [Lapatinib] (partner 2 µM)
Outline: as §1

Row | Cell Line | relative viability ([1]; first compound 0.0002 µM) | relative viability ([1]; first compound 0.000632 µM) | relative viability ([1]; first compound 0.002 µM) | relative viability ([1]; first compound 0.006325 µM) | relative viability ([1]; first compound 0.02 µM) | relative viability ([2]; first compound 0.08 µM) | relative viability ([2]; first compound 0.253 µM) | relative viability ([2]; first compound 0.8 µM) | relative viability ([2]; first compound 2.53 µM) | relative viability ([2]; first compound 8 µM) | relative viability ([3]; first compound 0.0002 µM) | relative viability ([3]; first compound 0.000632 µM) | relative viability ([3]; first compound 0.002 µM) | relative viability ([3]; first compound 0.006325 µM) | relative viability ([3]; first compound 0.02 µM) | relative viability ([4]; first compound 0.01 µM) | relative viability ([4]; first compound 0.03162 µM) | relative viability ([4]; first compound 0.1 µM) | relative viability ([4]; first compound 0.3162 µM) | relative viability ([4]; first compound 1 µM)
1 | HCC-827 | 0.267 | 0.259 | 0.18 | 0.215 | 0.199 | 0.961 | 1.02 | 1.07 | 0.747 | 0.8 | 0.428 | 0.379 | 0.442 | 0.192 | 0.101 | 0.183 | 0.195 | 0.226 | 0.229 | 0.271
2 | HOP-62 | 0.603 | 0.387 | 0.51 | 0.25 | 0.043 | 0.558 | 0.458 | 0.919 | 0.429 | 0.0856 | 0.661 | 0.625 | 0.54 | 0.151 | 0.0609 | 0.963 | 0.909 | 0.976 | 1.04 | 1.05
3 | LC-2-ad | 0.828 | 0.787 | 0.878 | 0.271 | 0.182 | 0.46 | 0.356 | 0.247 | 0.0963 | 0.0784 | 0.686 | 0.507 | 0.557 | 0.19 | 0.146 | 0.977 | 0.906 | 0.802 | 0.817 | 0.867
4 | LCLC-97TM1 | 0.179 | – | 0.32 | 0.234 | 0.0966 | 0.171 | 0.102 | 0.161 | 0.105 | 0.0788 | 0.426 | 0.403 | 0.433 | 0.257 | 0.159 | 0.835 | 0.936 | 1.3 | 0.906 | 1.21
5 | LK-2 | 0.335 | 0.387 | 0.533 | 0.449 | 0.0966 | 0.464 | 0.694 | 0.54 | 0.279 | 0.186 | 0.416 | 0.282 | 0.514 | 0.131 | 0.149 | 0.994 | 0.838 | 0.915 | 0.886 | 0.805
6 | LOU-NH91 | 0.729 | 0.68 | 0.361 | 0.348 | 0.339 | 0.461 | 0.544 | 0.513 | 0.454 | 0.314 | 0.774 | 0.645 | 0.661 | 0.282 | 0.261 | 0.826 | 0.73 | 0.669 | 0.603 | 0.59
7 | LU99A | 0.373 | 0.344 | 0.381 | 0.437 | 0.163 | 0.328 | 0.296 | 0.284 | 0.157 | 0.142 | 0.789 | 0.782 | 0.898 | 0.85 | 0.328 | 0.997 | 0.922 | 0.914 | 0.255 | 0.196
8 | LXF-289 | 1.12 | 1.03 | 1.19 | 0.11 | 0.0936 | 0.802 | 0.783 | 0.74 | 0.442 | 0.277 | 0.556 | 0.507 | 0.483 | 0.076 | 0.0724 | 0.893 | 0.903 | 0.934 | 0.832 | 0.624
